Like-named read-outs stand apart in the source and are kept apart here.
Test system: human iPSC neurons, astrocytes and microglia treated with 5 μM sAβ42s
Test: Focused small molecule screen, triple culture (neuron, astrocyte, microglia), rescue from sAβ42s toxicity
Format: cell-based
Conditions: for percent rescue from sAβ42s toxicity at 50 µM / percent rescue from sAβ42s toxicity at 0.78 µM / percent rescue from sAβ42s toxicity at 3.13 µM / percent rescue from sAβ42s toxicity at 12.5 µM: Homo sapiens, iPSC; for percent rescue from sAβ42s toxicity at 0.78 µM: 0.78 μM compound
Experimental: FIGS. 11A-11D show synapse % rescue versus MAP2% rescue (FIGS. 11A-11B) and beta III tubulin % rescue versus MAP2% rescue (FIGS. 11C-11D), in neurons and astrocytes (FIGS. 11A and 11C) or neurons, astrocytes, and microglia (FIGS. 11B and 11D) treated with 5 μM sAβ42s and small molecules from a focused screen of known neuroprotective agents at multiple concentrations (50 μM, 25 μM, 12.5 μM and 6.25 μM (double culture), 50 μM, 12.5 μM, 3.1 μM and 0.78 μM (triple culture). Small molecules that prevented toxicity in dendrites (MAP2), synapses (Synapsin 1/2), cell count (CUX2), or axons ([…]) at or above 30% were considered hits (red dotted line).
Frozen cells were thawed and immediately seeded at a density of 8,000 cells/well of a 384-well plate onto 8-week old neuron-astrocyte co-culture in Microglia media (BrainPhys™ neuronal media (Stem Cell Technologies) supplemented with 1× B27 with vitamin A, 1×N2 Plus Media Supplement (R&D Systems), 20 ng/mL BDNF, 20 ng/mL GDNF, 1 mM creatine, 200 nM L-ascorbic acid, 1 μg/mL mouse laminin, 0.5 mM GlutaMAX™ (Thermofisher), 0.5× penicillin-streptomycin, 1× normocin, 5 ng/mL TGF-β, 100 ng/mL human IL-34, 1.5 μg/mL cholesterol, 1 ng/mL gondoic acid, 100 ng/mL oleic acid, 460 μM thioglycerol, 1× insulin-transferrin-selenium, 25 ng/mL rhM-CSF, 5.4 μg/mL human insulin solution).
In double (neuron, astrocyte) and triple (neuron, astrocyte, microglia) cultures, each small molecule listed in Table 1 was tested in the AD model paradigm at up to four concentrations. Molecules that characterized ≥30% rescue in any of the four measurements of dendrites area (MAP2), synapses count (synapsin 1/2), or cell count (CUX2), or axon area (Beta III Tubulin; “BT3”)) were classified as hits (FIGS. 11A-11D, Table 2, and Table 3).

[1] = 50.00 μM compound, read-out: % B3T rescue
[2] = 50.00 μM compound, read-out: % MAP2 rescue
[3] = 50.00 μM compound, read-out: % Synapse rescue
[4] = 3.13 μM compound, read-out: % B3T rescue
[5] = 3.13 μM compound, read-out: % MAP2 rescue
[6] = 3.13 μM compound, read-out: % Synapse rescue
[7] = 12.50 μM compound, read-out: % B3T rescue
[8] = 12.50 μM compound, read-out: % MAP2 rescue
[9] = 12.50 μM compound, read-out: % Synapse rescue

SMILES | % B3T rescue (3.13 μM compound) | % MAP2 rescue (3.13 μM compound) | % Synapse rescue (3.13 μM compound) | % B3T rescue (50.00 μM compound) | % MAP2 rescue (50.00 μM compound) | % Synapse rescue (50.00 μM compound) | percent rescue from sAβ42s toxicity at 12.5 µM [7] | percent rescue from sAβ42s toxicity at 12.5 µM [8] | percent rescue from sAβ42s toxicity at 12.5 µM [9] | also measured
C=C(c1ccc(C(=O)O)c(F)c1)c1cc2c(cc1C)C(C)(C)CCC2(C)C [Fluorobexarotene] | 50% | 43% | 34% | – | – | – | – | – | – | % B3T rescue (12.50 μM compound): 33%; % MAP2 rescue (12.50 μM compound): 40%; % Synapse rescue (12.50 μM compound): 33%
OC(CNc1ccccc1)Cn1c2ccc(Br)cc2c2cc(Br)ccc21 (stereo not drawn) [P7C3] | 30% | 2% | 3% | 43% | −8% | 2% | – | – | – | –
Oc1cc(O)c2c(c1)O[C@H](c1ccc(O)c(O)c1)[C@H](O)C2 [Epicatechin] | – | – | – | – | – | – | – | – | – | percent rescue from sAβ42s toxicity at 50 µM [1]: 30%; percent rescue from sAβ42s toxicity at 50 µM [2]: 28%; percent rescue from sAβ42s toxicity at 50 µM [3]: 20%
O=C1Nc2ccccc2/C1=C1/Nc2ccccc2/C1=N\O [Indinibin-3′-monoxime] | 31% | 6% | 9% | 49% | 23% | 34% | – | – | – | % B3T rescue (12.50 μM compound): 74%; % MAP2 rescue (12.50 μM compound): 37%; % Synapse rescue (12.50 μM compound): 44%
Oc1ccc(C=Cc2cc(O)cc(O)c2)cc1 [Resveratrol] | – | – | – | – | – | – | 54% | 57% | 49% | percent rescue from sAβ42s toxicity at 0.78 µM (read-out: % B3T rescue): 27%; percent rescue from sAβ42s toxicity at 0.78 µM (read-out: % MAP2 rescue): 33%; percent rescue from sAβ42s toxicity at 0.78 µM (read-out: % Synapse rescue): 24%; percent rescue from sAβ42s toxicity at 3.13 µM [4]: 30%; percent rescue from sAβ42s toxicity at 3.13 µM [5]: 33%; percent rescue from sAβ42s toxicity at 3.13 µM [6]: 27%; percent rescue from sAβ42s toxicity at 50 µM [1]: 78%; percent rescue from sAβ42s toxicity at 50 µM [2]: 84%; percent rescue from sAβ42s toxicity at 50 µM [3]: 78%
CC(C)[C@H](CO)Nc1nc(Nc2cccc(Cl)c2)c2ncn(C(C)C)c2n1 [Purvalanol A] | 33% | 15% | 24% | – | – | – | – | – | – | –
COc1ccc(S(=O)(=O)NCCCC(=O)Nc2ccc(Sc3ccc(N)cc3)cc2)cc1 [BI-6C9] | – | – | – | 65% | 58% | 55% | – | – | – | –
C=CC[C@@H]1/C=C(\C)C[C@H](C)C[C@H](OC)[C@H]2O[C@@](O)(C(=O)C(=O)N3CCCC[C@H]3C(=O)O[C@H](/C(C)=C/[C@@H]3CC[C@@H](O)[C@H](OC)C3)[C@H](C)[C@@H](O)CC1=O)[C@H](C)C[C@@H]2OC [FK 506] | – | – | – | – | – | – | 52% | 34% | 34% | –
C/C=C1\C(=O)C[C@H]2[C@@H]3CCC4=CC(=O)CC[C@]4(C)[C@H]3CC[C@]12C [Guggulsterone] | – | – | – | – | – | – | – | – | – | percent rescue from sAβ42s toxicity at 50 µM [1]: 36%; percent rescue from sAβ42s toxicity at 50 µM [2]: 19%; percent rescue from sAβ42s toxicity at 50 µM [3]: 17%
Cn1sc(=O)n(Cc2ccccc2)c1=O [TDZD-8] | – | – | – | 54% | −29% | −8% | – | – | – | –
O=C(COc1ccc(Cl)cc1)NC1CCC(NC(=O)COc2ccc(Cl)cc2)CC1 (stereo not drawn) [ISR Inhibitor, ISRIB] | – | – | – | 22% | 31% | 21% | – | – | – | –
Cn1cc(C2=C(c3ccc(Cl)cc3Cl)C(=O)NC2=O)c2ccccc21 [SB216763] | – | – | – | 46% | −24% | −15% | – | – | – | –
O=C(NOC[C@H](O)CO)c1ccc(F)c(F)c1Nc1ccc(I)cc1F [PD0325901] | – | – | – | – | – | – | 43% | 8% | 8% | percent rescue from sAβ42s toxicity at 0.78 µM (read-out: % B3T rescue): 48%; percent rescue from sAβ42s toxicity at 0.78 µM (read-out: % MAP2 rescue): 19%; percent rescue from sAβ42s toxicity at 0.78 µM (read-out: % Synapse rescue): 15%; percent rescue from sAβ42s toxicity at 3.13 µM [4]: 52%; percent rescue from sAβ42s toxicity at 3.13 µM [5]: 23%; percent rescue from sAβ42s toxicity at 3.13 µM [6]: 21%; percent rescue from sAβ42s toxicity at 50 µM [1]: 59%; percent rescue from sAβ42s toxicity at 50 µM [2]: 27%; percent rescue from sAβ42s toxicity at 50 µM [3]: 27%
CC(C)CCC[C@@H](C)[C@H]1CC[C@H]2[C@@H]3CCC4=CC(=NO)CC[C@]4(C)[C@H]3CC[C@]12C [TRO 19622] | – | – | – | – | – | – | 33% | -36% | -13% | percent rescue from sAβ42s toxicity at 3.13 µM [4]: 34%; percent rescue from sAβ42s toxicity at 3.13 µM [5]: -25%; percent rescue from sAβ42s toxicity at 3.13 µM [6]: -10%
Cc1c(C)c(NCC(=O)N(C)C2CCN(Cc3ccc(C(N)=O)cc3)CC2)c(C)c(C)c1N [sun11602] | 33% | 10% | 11% | 47% | 14% | 11% | – | – | – | % B3T rescue (12.50 μM compound): 43%; % MAP2 rescue (12.50 μM compound): 19%; % Synapse rescue (12.50 μM compound): 15%
Cc1[nH]c(/C=C2\C(=O)Nc3ccccc32)c(C)c1CCC(=O)O [SU 6668] | 34% | 31% | 26% | 77% | 80% | 75% | – | – | – | –
CCOC(=O)c1ccc(N(C)c2csc(-c3ccccc3)n2)cc1 [Neuropathiazol] | – | – | – | 35% | 27% | 28% | – | – | – | % B3T rescue (12.50 μM compound): 35%; % MAP2 rescue (12.50 μM compound): 44%; % Synapse rescue (12.50 μM compound): 42%
Oc1cc2c(cc1O)CN(C(=S)NCCc1ccc(Cl)cc1)CCC2 [Capsazepine] | – | – | – | – | – | – | 50% | 44% | 44% | –
COc1cc([C@@H]2c3cc4c(cc3[C@@H](O[C@@H]3O[C@@H]5CO[C@@H](c6cccs6)O[C@H]5[C@H](O)[C@H]3O)[C@H]3COC(=O)[C@H]23)OCO4)cc(OC)c1O [Teniposide] | – | – | – | – | – | – | 50% | -17% | 3% | percent rescue from sAβ42s toxicity at 0.78 µM (read-out: % B3T rescue): 35%; percent rescue from sAβ42s toxicity at 0.78 µM (read-out: % MAP2 rescue): -7%; percent rescue from sAβ42s toxicity at 0.78 µM (read-out: % Synapse rescue): 1%; percent rescue from sAβ42s toxicity at 3.13 µM [4]: 42%; percent rescue from sAβ42s toxicity at 3.13 µM [5]: -10%; percent rescue from sAβ42s toxicity at 3.13 µM [6]: 5%; percent rescue from sAβ42s toxicity at 50 µM [1]: 52%; percent rescue from sAβ42s toxicity at 50 µM [2]: -19%; percent rescue from sAβ42s toxicity at 50 µM [3]: 3%
CCCn1c(C)c(C(=O)c2cccc3ccccc23)c2ccccc21 [JWH 015] | – | – | – | 42% | 38% | 26% | – | – | – | % B3T rescue (12.50 μM compound): 60%; % MAP2 rescue (12.50 μM compound): 50%; % Synapse rescue (12.50 μM compound): 43%

Reference: patent publication US20230014181A1, “CULTURE SYSTEM AND METHODS FOR IMPROVED MODELING OF NEUROLOGICAL CONDITIONS” (Genentech, Inc., priority 2021, published 2023)
